Data published in ChEMBL document CHEMBL1201862, “PubChem BioAssay data set” (2004).
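Where inhibition never reached the appropriate level, the endpoint shown equals the highest concentration tested. Otherwise, values were interpolated linearly from a five-concentration, 48-hour dose response in 96-well plates. GI50: concentration for 50% inhibition of growth.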 Active and inactive are the calls of the source. No stated cut-off is given here; in the data, active = GI50 up to about 1.1 µM and inactive = higher.

How the values were obtained:
Assay in all cases: growth of human tumour cells (NCI), 48 h
786-0 = tested on: 786-0
A549 = tested on: A549
CAKI-1 = tested on: CAKI-1
CCRF-CEM = tested on: CCRF-CEM
HCT-116 = tested on: HCT-116
HT-29 = tested on: HT-29
K562 = tested on: K562
Malme-3M = tested on: Malme-3M
NCI-H226 = tested on: NCI-H226
NCI-H460 = tested on: NCI-H460
SF-268 = tested on: SF-268
TK-10 = tested on: TK-10
UO-31 = tested on: UO-31
A498 = tested on: A498
SR = tested on: SR
DU-145 = tested on: DU-145
Hs-578T = tested on: Hs-578T
NCI/ADR-RES = tested on: NCI/ADR-RES
T47D = tested on: T47D

Measured: GI50

CCOC(=O)C(=O)Nc1ccccc1CC
inactive: 786-0 > 100 µM | A549 > 100 µM | CAKI-1 > 100 µM | CCRF-CEM > 100 µM | HCT-116 > 100 µM | HT-29 > 100 µM | K562 > 100 µM | Malme-3M > 100 µM | NCI-H226 > 100 µM | NCI-H460 > 100 µM | SF-268 > 100 µM | TK-10 > 100 µM | UO-31 > 100 µM

CC1=C2[C@@H](c3ccccc3)C3C=CC2(C=C3C(F)(F)F)N(C(=O)NC2CCCCC2)C1=O (some centres undefined)
inactive: 786-0 78 µM | A498 > 100 µM | A549 67.5 µM | CAKI-1 51.8 µM | CCRF-CEM 25.1 µM | HCT-116 32.4 µM | HT-29 72.9 µM | K562 36.6 µM | Malme-3M > 100 µM | NCI-H460 > 100 µM | SF-268 91 µM | SR 15.8 µM | TK-10 > 100 µM | UO-31 51.5 µM

CC1=C(C(=O)Nc2cccc(Cl)c2)C(c2ccc([N+](=O)[O-])cc2)C(C(=O)Nc2cccc(Cl)c2)=C(C)N1
inactive: 786-0 22 µM | A498 33.1 µM | A549 28.9 µM | CCRF-CEM 10.9 µM | HCT-116 13.1 µM | HT-29 16.6 µM | K562 24.8 µM | Malme-3M 21 µM | NCI-H226 26.9 µM | NCI-H460 20.1 µM | SF-268 27 µM | TK-10 67.3 µM | UO-31 17.7 µM

OCc1ccccc1C1CSCSC1
inactive: A549 > 100 µM | CCRF-CEM > 100 µM | HCT-116 > 100 µM | HT-29 > 100 µM | K562 > 100 µM | Malme-3M > 100 µM | NCI-H226 > 100 µM | NCI-H460 > 100 µM | SF-268 > 100 µM | TK-10 > 100 µM | UO-31 > 100 µM

COc1ccc(Nc2nc3ccccc3nc2-c2cccs2)cc1
inactive: 786-0 75 µM | A498 42.6 µM | A549 80.4 µM | CAKI-1 > 100 µM | CCRF-CEM > 100 µM | HCT-116 > 100 µM | K562 > 100 µM | Malme-3M > 100 µM | NCI-H226 > 100 µM | NCI-H460 79.4 µM | SF-268 > 100 µM | SR 55 µM | TK-10 > 100 µM | UO-31 > 100 µM

CC(C(=O)COCc1ccccc1)P1(=O)OC(C)(C)CN1C(C)(C)C (centres undefined)
inactive: 786-0 > 100 µM | A498 > 100 µM | A549 > 100 µM | CAKI-1 > 100 µM | CCRF-CEM > 100 µM | DU-145 > 100 µM | HCT-116 > 100 µM | HT-29 > 100 µM | Hs-578T > 100 µM | NCI-H226 > 100 µM | NCI-H460 > 100 µM | NCI/ADR-RES > 100 µM | SF-268 > 100 µM | T47D > 100 µM | TK-10 > 100 µM | UO-31 > 100 µM

CC(C)CCNC(=O)c1ccc(CNC(=O)/C=C/c2ccc(OCc3ccccc3)cc2)cc1
inactive: 786-0 > 100 µM | A498 > 100 µM | A549 > 100 µM | CAKI-1 > 100 µM | CCRF-CEM > 100 µM | DU-145 > 100 µM | HCT-116 > 100 µM | HT-29 > 100 µM | K562 > 100 µM | NCI-H226 39.9 µM | NCI-H460 > 100 µM | NCI/ADR-RES > 100 µM | SF-268 > 100 µM | SR > 100 µM | T47D > 100 µM | UO-31 > 100 µM

N#CCC(=O)N/N=C1/C(=O)N(c2ccc(Cl)cc2)C(=O)C(=O)C1c1nc2ccccc2s1 (centres undefined)
inactive: 786-0 > 100 µM | A498 > 100 µM | A549 > 100 µM | CAKI-1 > 100 µM | HCT-116 53.7 µM | HT-29 > 100 µM | Malme-3M > 100 µM | NCI-H226 26.3 µM | SF-268 55.5 µM | TK-10 > 100 µM | UO-31 28.5 µM

Cn1cc(C(=O)c2ccccc2)ccc1=O
inactive: 786-0 > 100 µM | A549 > 100 µM | CAKI-1 > 100 µM | CCRF-CEM > 100 µM | HCT-116 > 100 µM | HT-29 > 100 µM | K562 > 100 µM | Malme-3M > 100 µM | NCI-H226 > 100 µM | NCI-H460 > 100 µM | SF-268 > 100 µM | SR > 100 µM | TK-10 > 100 µM | UO-31 > 100 µM

C/C=C/c1cc2c(c(=O)o1)C(=O)[C@@H](O)[C@H](C)O2
inactive: A498 12 µM | A549 19.7 µM | CAKI-1 17.3 µM | CCRF-CEM 5.46 µM | HCT-116 7.8 µM | HT-29 14.4 µM | K562 8.59 µM | Malme-3M 17.3 µM | NCI-H226 16.9 µM | NCI-H460 21.7 µM | NCI/ADR-RES 15.9 µM | SF-268 13 µM | UO-31 19.7 µM

O=C(/C(=C/c1ccc(O)cc1)c1ccccc1)c1ccccc1
inactive: 786-0 18.5 µM | A498 17.9 µM | A549 18 µM | CAKI-1 19.1 µM | CCRF-CEM 20 µM | HCT-116 16.7 µM | HT-29 18.1 µM | K562 17.8 µM | Malme-3M 19 µM | NCI-H226 16.7 µM | NCI-H460 18.7 µM | SF-268 17.3 µM | SR 23.8 µM | TK-10 16.2 µM | UO-31 15.4 µM

Cc1ccc(S(=O)(=O)NCCSCCNS(=O)(=O)c2ccc(C)cc2)cc1
inactive: A498 > 100 µM | A549 > 100 µM | CCRF-CEM > 100 µM | DU-145 > 100 µM | HCT-116 > 100 µM | HT-29 > 100 µM | Hs-578T > 100 µM | K562 > 100 µM | NCI-H226 > 100 µM | NCI-H460 > 100 µM | NCI/ADR-RES > 100 µM | SF-268 > 100 µM | SR > 100 µM | T47D > 100 µM | TK-10 > 100 µM | UO-31 > 100 µM

CCCCCCCCCC/C=C/C=O
inactive: A498 > 100 µM | A549 > 100 µM | CCRF-CEM > 100 µM | HCT-116 > 100 µM | HT-29 > 100 µM | K562 > 100 µM | Malme-3M > 100 µM | NCI-H460 > 100 µM | SF-268 > 100 µM | SR > 100 µM | TK-10 > 100 µM | UO-31 > 100 µM

C1CCC(OCc2nnn3c2CCC3)OC1 (centres undefined)
inactive: A549 > 100 µM | CCRF-CEM > 100 µM | HCT-116 > 100 µM | HT-29 > 100 µM | K562 > 100 µM | Malme-3M > 100 µM | NCI-H460 > 100 µM | SR > 100 µM | TK-10 > 100 µM | UO-31 > 100 µM

CCOC(=O)C1(Cc2ccc3ccccc3c2)CCCCC(=O)N1 (centres undefined)
inactive: 786-0 38.8 µM | A549 39.1 µM | CAKI-1 43.1 µM | CCRF-CEM 23.3 µM | HT-29 30.8 µM | K562 4.55 µM | Malme-3M 11.9 µM | NCI-H460 25.7 µM | SF-268 49.8 µM | TK-10 56.1 µM | UO-31 23.9 µM

Cc1ccc(C2NC(=O)c3ccccc3N2)s1 (centres undefined)
inactive: 786-0 5.69 µM | A498 6.78 µM | A549 8.83 µM | CCRF-CEM 3.27 µM | HCT-116 6.31 µM | K562 3.2 µM | Malme-3M 4.8 µM | NCI-H460 4.25 µM | SF-268 8 µM | SR 8.3 µM | TK-10 > 100 µM | UO-31 7.38 µM

Nc1c(/N=N/c2ccc(-c3ccc(/N=N/c4c(O)ccc5cc(S(=O)(=O)O)cc(S(=O)(=O)O)c45)cc3)cc2)c(S(=O)(=O)O)cc2cc(S(=O)(=O)O)c(/N=N/c3ccccc3)c(O)c12
inactive: A498 > 100 µM | A549 > 70.8 µM | CCRF-CEM > 100 µM | HCT-116 > 100 µM | HT-29 > 100 µM | K562 > 100 µM | Malme-3M > 100 µM | NCI-H226 19.6 µM | NCI-H460 > 100 µM | NCI/ADR-RES > 100 µM | SF-268 > 100 µM | UO-31 6.84 µM

CC1=C(C(=O)Nc2ccccc2)C(c2ccc3c(c2)OCO3)C(C(=O)Nc2ccccc2)=C(C)N1
inactive: 786-0 36.3 µM | A498 19.5 µM | A549 49.5 µM | CAKI-1 31.3 µM | CCRF-CEM 15.2 µM | HT-29 37.2 µM | K562 17.5 µM | Malme-3M 62.1 µM | NCI-H226 39.6 µM | NCI-H460 43.9 µM | SF-268 25.3 µM | TK-10 59.7 µM | UO-31 29.5 µM

C=CC[N+](CCO)(CCO)CCCCCCCCCCCCCCCCCC
inactive: A498 15.6 µM | A549 11.3 µM | CAKI-1 4.46 µM | CCRF-CEM 1.23 µM | HCT-116 3.4 µM | HT-29 3.08 µM | K562 2.96 µM | Malme-3M 14.8 µM | NCI-H226 7.78 µM | NCI-H460 4.05 µM | NCI/ADR-RES 23.5 µM | SF-268 3.33 µM | UO-31 9.62 µM

COc1cc2oc(-c3ccc(O)cc3)cc(=O)c2c(O)c1C1OC(CO)C(O)C(O)C1O (centres undefined)
inactive: 786-0 > 100 µM | A498 > 100 µM | A549 > 100 µM | CAKI-1 > 100 µM | CCRF-CEM > 100 µM | HCT-116 > 100 µM | HT-29 > 100 µM | K562 > 100 µM | Malme-3M > 100 µM | NCI-H226 > 100 µM | NCI-H460 > 100 µM | SF-268 > 100 µM | SR > 100 µM | TK-10 > 100 µM | UO-31 > 100 µM
